Data as given in BigSolDB 2.1.

For CC[C@H](CC[C@@H](C)[C@H]1CC[C@H]2[C@@H]3CC=C4C[C@@H](O)CC[C@]4(C)[C@H]3CC[C@]12C)C(C)C, the solubility (mole fraction) (in acetone, 278.15 K) was 0.00274, the solubility (mole fraction) (in acetone, 283.15 K) was 0.00322 and the solubility (mole fraction) (in acetone, 288.15 K) was 0.00379. For the same molecule, the solubility (mole fraction) (in acetone, 293.15 K) was 0.00446, the solubility (mole fraction) (in acetone, 298.15 K) was 0.00525 and the solubility (mole fraction) (in acetone, 303.15 K) was 0.00616. The solubility (mole fraction) (in acetone, 308.15 K) was 0.00724, the solubility (mole fraction) (in acetone, 313.15 K) was 0.00852 and the solubility (mole fraction) (in acetone, 318.15 K) was 0.01. For the same molecule, the solubility (mole fraction) (in acetone, 323.15 K) was 0.0118, the solubility (mole fraction) (in acetone, 328.15 K) was 0.0139 and the solubility (mole fraction) (in ethanol, 278.15 K) was 0.0013. It also gave a solubility (mole fraction) (in ethanol, 283.15 K) of 0.00158, a solubility (mole fraction) (in ethanol, 288.15 K) of 0.0019 and a solubility (mole fraction) (in ethanol, 293.15 K) of 0.00229. The solubility (mole fraction) (in ethanol, 298.15 K) was 0.00274, the solubility (mole fraction) (in ethanol, 303.15 K) was 0.00328 and the solubility (mole fraction) (in ethanol, 308.15 K) was 0.00389. It also gave a solubility (mole fraction) (in ethanol, 313.15 K) of 0.0046, a solubility (mole fraction) (in ethanol, 318.15 K) of 0.0054 and a solubility (mole fraction) (in ethanol, 323.15 K) of 0.00632. For the same molecule, the solubility (mole fraction) (in ethanol, 328.15 K) was 0.00738, the solubility (mole fraction) (in ethanol, 333.15 K) was 0.00856 and the solubility (mole fraction) (in ethyl acetate, 278.15 K) was 0.00447. For the same molecule, the solubility (mole fraction) (in ethyl acetate, 283.15 K) was 0.0053, the solubility (mole fraction) (in ethyl acetate, 288.15 K) was 0.00627 and the solubility (mole fraction) (in ethyl acetate, 293.15 K) was 0.00738. For the same molecule, the solubility (mole fraction) (in ethyl acetate, 298.15 K) was 0.00872, the solubility (mole fraction) (in ethyl acetate, 303.15 K) was 0.0103 and the solubility (mole fraction) (in ethyl acetate, 308.15 K) was 0.012. The solubility (mole fraction) (in ethyl acetate, 313.15 K) was 0.014, the solubility (mole fraction) (in ethyl acetate, 318.15 K) was 0.0163 and the solubility (mole fraction) (in ethyl acetate, 323.15 K) was 0.019. For the same molecule, the solubility (mole fraction) (in methanol, 278.15 K) was 0.000136, the solubility (mole fraction) (in methanol, 283.15 K) was 0.000167 and the solubility (mole fraction) (in methanol, 288.15 K) was 0.000205. It also gave a solubility (mole fraction) (in methanol, 293.15 K) of 0.000248, a solubility (mole fraction) (in methanol, 298.15 K) of 0.000299 and a solubility (mole fraction) (in methanol, 303.15 K) of 0.000357. For the same molecule, the solubility (mole fraction) (in methanol, 308.15 K) was 0.000427, the solubility (mole fraction) (in methanol, 313.15 K) was 0.000509 and the solubility (mole fraction) (in methanol, 318.15 K) was 0.000606. The solubility (mole fraction) (in methanol, 323.15 K) was 0.00072, the solubility (mole fraction) (in methanol, 328.15 K) was 0.000855 and the solubility (mole fraction) (in n-hexane, 278.15 K) was 0.000862. It also gave a solubility (mole fraction) (in n-hexane, 283.15 K) of 0.00103, a solubility (mole fraction) (in n-hexane, 288.15 K) of 0.00123 and a solubility (mole fraction) (in n-hexane, 293.15 K) of 0.00147. It also gave a solubility (mole fraction) (in n-hexane, 298.15 K) of 0.00173, a solubility (mole fraction) (in n-hexane, 303.15 K) of 0.00205 and a solubility (mole fraction) (in n-hexane, 308.15 K) of 0.0024. For the same molecule, the solubility (mole fraction) (in n-hexane, 313.15 K) was 0.0028, the solubility (mole fraction) (in n-hexane, 318.15 K) was 0.00326 and the solubility (mole fraction) (in n-hexane, 323.15 K) was 0.00377. The solubility (mole fraction) (in n-hexane, 328.15 K) was 0.00436 and the solubility (mole fraction) (in n-hexane, 333.15 K) was 0.005.
